Measurements reported in US12084444B2, “Spiro-lactam NMDA modulators and methods of using same” (Tenacia Biotechnology (Hong Kong) Co., Limited, priority 2016, dated 2024).

Assays:
Format in all cases: biochemical
[1] = molecular target: T1, NMDAR2A expressing HEK cell membranes (Homo sapiens, UniProt Q05586+Q12879); test: NMDAR agonist assay, [3H]MK-801 binding, NMDAR2A; parameters: key to NMDAR2A B: log EC50: 0=−; ≥1×10^−9 M (e.g., −8)=+; <1×10^−9 M (e.g., −10)=++; conditions: 50 μM glutamate; for EC50: read-out: NMDAR2A B: log EC50 (converted); for Emax: 0.25 h, read-out: NMDAR2A A: % maximal [3H]MK-801 binding relative to 1 mM glycine
T1 construct: expressed in transfected cells; host or cells: HEK cells (membrane extract)
T1 sequence (Q12879 23-1464, other chains not shown): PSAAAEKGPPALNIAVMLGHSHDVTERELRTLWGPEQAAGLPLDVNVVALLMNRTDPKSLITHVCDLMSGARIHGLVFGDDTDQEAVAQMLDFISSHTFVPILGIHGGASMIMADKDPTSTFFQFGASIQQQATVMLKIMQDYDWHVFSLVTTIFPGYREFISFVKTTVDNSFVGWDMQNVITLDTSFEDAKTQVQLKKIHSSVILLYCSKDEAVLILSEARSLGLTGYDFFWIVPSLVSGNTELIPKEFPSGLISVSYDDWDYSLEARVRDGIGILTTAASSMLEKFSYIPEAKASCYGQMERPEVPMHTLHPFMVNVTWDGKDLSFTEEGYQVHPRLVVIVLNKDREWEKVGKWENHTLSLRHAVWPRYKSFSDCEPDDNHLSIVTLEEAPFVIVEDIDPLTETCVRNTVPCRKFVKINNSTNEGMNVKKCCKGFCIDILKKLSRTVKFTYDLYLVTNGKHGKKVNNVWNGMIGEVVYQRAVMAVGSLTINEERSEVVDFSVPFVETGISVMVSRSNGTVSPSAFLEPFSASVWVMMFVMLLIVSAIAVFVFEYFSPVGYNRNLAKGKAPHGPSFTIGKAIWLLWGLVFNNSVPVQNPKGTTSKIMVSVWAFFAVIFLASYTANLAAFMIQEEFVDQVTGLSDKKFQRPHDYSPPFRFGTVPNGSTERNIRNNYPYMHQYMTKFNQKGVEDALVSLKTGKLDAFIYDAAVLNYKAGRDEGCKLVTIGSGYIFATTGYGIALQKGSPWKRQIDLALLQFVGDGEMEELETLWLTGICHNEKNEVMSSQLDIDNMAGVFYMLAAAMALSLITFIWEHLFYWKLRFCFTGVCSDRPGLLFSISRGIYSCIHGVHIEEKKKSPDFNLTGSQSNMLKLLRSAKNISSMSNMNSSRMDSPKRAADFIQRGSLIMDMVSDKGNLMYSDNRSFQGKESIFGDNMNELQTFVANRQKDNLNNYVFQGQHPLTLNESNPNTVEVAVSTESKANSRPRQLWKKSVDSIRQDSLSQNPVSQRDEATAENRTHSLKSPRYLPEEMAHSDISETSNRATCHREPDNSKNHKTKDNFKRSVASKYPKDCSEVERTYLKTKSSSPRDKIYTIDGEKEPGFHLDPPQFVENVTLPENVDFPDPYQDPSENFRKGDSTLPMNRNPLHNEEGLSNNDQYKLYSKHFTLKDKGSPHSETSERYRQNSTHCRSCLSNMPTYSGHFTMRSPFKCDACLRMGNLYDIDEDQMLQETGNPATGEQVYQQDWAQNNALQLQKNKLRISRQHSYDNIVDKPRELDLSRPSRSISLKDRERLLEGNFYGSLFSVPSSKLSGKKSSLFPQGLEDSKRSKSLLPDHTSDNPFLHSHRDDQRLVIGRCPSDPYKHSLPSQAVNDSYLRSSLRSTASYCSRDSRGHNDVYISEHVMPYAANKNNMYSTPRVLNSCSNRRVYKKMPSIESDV
Method: (§1) Assays were conducted as described by Moskal et al., “GLYX-13: a monoclonal antibody-derived peptide that acts as an N-methyl-D-aspartate receptor modulator,” Neuropharmacology, 49, 1077-87, 2005. These studies were designed to determine if the test compounds act to facilitate NMDAR activation in NMDAR2A, NMDAR2B, NMDAR2C or NMDAR2D expressing HEK cell membranes as measured by increases in [^3H]MK-801 binding.
(§2) In the assay, 300 μg of NMDAR expressing HEK cell membrane extract protein was preincubated for 15 minutes at 25° C. in the presence of saturating concentrations of glutamate (50 μM) and varying concentrations of test compound (1×10^−15 M-1×10^−7 M), or 1 mM glycine. Following the addition of 0.3 μCi of [^3H]MK-801 (22.5 Ci/mmol), reactions were again incubated for 15 minutes at 25° C. (nonequilibrium conditions). Bound and free [^3H]MK-801 were separated via rapid filtration using a Brandel apparatus.
(§3) In analyzing the data, the DPM (disintegrations per minute) of [^3H]MK-801 remaining on the filter were measured for each concentration of test compound or for 1 mM glycine. The DPM values for each concentration of a ligand (N=2) were averaged. The baseline value was determined from the best fit curve of the DPM values modeled using the GraphPad program and the log(agonist) vs. response(three parameters) algorithm was then subtracted from all points in the dataset. The % maximal [^3H]MK-801 binding was then calculated relative to that of 1 mM glycine: all baseline subtracted DPM values were divided by the average value for 1 mM glycine. The EC50 and % maximal activity were then obtained from the best fit curve of the % maximal [^3H]MK-801 binding data modelled using the GraphPad program and the log(agonist) vs. response(three parameters) algorithm.
(§4) The tables below summarize the results for the wild type NMDAR agonists NMDAR2A, NMDAR2B, NMDAR2C, and NMDAR2D, and whether the compound is not an agonist (−), is an agonist (+), or is a strong agonist (++), where column A is based on the % maximal [^3H]MK-801 binding relative to 1 mM glycine (−=0; <100%=+; and >100%=++); and column B is based on log EC50 values (0=−; ≥1×10^−9 M (e.g., −8)=+; and <1×10^−9 M (e.g., −10)=++).

[2] = molecular target: T2, NMDAR2B expressing HEK cell membranes (Homo sapiens, UniProt Q13224); test: NMDAR agonist assay, [3H]MK-801 binding, NMDAR2B; parameters: key to NMDAR2B B: log EC50: 0=−; ≥1×10^−9 M (e.g., −8)=+; <1×10^−9 M (e.g., −10)=++; conditions: 50 μM glutamate; for EC50: read-out: NMDAR2B B: log EC50 (converted)
T2 construct: expressed in transfected cells; host or cells: HEK cells (membrane extract)
T2 sequence (Q13224 27-1484, other chains not shown): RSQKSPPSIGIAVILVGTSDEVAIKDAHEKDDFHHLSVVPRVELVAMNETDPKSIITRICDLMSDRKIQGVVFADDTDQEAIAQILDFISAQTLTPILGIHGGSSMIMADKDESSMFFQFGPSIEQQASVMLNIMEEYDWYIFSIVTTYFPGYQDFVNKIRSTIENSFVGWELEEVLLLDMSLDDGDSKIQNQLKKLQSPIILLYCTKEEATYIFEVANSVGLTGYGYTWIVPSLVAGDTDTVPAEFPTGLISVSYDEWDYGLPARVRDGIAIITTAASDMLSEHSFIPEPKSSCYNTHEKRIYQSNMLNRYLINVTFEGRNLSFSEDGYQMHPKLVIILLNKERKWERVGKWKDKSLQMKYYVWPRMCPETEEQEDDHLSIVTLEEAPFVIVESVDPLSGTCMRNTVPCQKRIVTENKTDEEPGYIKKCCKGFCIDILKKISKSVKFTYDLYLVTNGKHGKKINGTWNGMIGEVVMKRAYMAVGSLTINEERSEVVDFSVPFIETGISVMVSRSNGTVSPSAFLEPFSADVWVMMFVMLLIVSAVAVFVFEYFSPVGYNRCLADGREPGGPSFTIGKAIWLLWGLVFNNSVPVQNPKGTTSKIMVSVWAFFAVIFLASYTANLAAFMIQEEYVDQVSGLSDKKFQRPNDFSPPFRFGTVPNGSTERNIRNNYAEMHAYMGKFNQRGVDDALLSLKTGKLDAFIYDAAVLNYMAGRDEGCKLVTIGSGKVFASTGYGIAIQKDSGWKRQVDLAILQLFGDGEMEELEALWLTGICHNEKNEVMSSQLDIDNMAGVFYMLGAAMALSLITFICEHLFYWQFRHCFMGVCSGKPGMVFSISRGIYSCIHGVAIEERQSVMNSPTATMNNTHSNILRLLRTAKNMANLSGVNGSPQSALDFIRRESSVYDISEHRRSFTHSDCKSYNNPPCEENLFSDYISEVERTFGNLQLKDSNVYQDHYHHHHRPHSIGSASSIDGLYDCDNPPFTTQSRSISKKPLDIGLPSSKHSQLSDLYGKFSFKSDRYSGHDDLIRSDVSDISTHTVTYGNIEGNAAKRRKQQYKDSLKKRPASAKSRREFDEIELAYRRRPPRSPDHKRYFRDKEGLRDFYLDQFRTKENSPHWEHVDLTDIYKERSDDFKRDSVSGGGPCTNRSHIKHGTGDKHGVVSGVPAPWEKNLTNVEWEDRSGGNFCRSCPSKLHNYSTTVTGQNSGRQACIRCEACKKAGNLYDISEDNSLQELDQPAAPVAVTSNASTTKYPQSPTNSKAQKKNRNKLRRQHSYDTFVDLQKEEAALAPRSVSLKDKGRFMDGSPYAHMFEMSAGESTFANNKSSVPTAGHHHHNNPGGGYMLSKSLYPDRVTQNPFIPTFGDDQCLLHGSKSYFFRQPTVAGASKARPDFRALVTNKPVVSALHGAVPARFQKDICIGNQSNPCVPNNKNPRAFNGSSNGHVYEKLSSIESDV
Method: as §1, §2, §3, §4

[3] = molecular target: T3, NMDAR2A expressing HEK cell membranes (Homo sapiens, UniProt Q12879); test: NMDAR agonist assay, [3H]MK-801 binding, NMDAR2A; parameters: key to NMDAR2A B: log EC50: 0=−; ≥1×10^−9 M (e.g., −8)=+; <1×10^−9 M (e.g., −10)=++; conditions: 50 μM glutamate; for EC50: read-out: NMDAR2A B: log EC50 (converted)
T3 construct: expressed in transfected cells; host or cells: HEK cells (membrane extract)
T3 sequence (Q12879 23-1464, other chains not shown): as the sequence (Q12879 23-1464, other chains not shown) above
Method: as §1, §2, §3, §4

[4] = molecular target: T4, NMDAR2B expressing HEK cell membranes (Homo sapiens, UniProt Q05586+Q13224); test: NMDAR agonist assay, [3H]MK-801 binding, NMDAR2B; parameters: key to NMDAR2B B: log EC50: 0=−; ≥1×10^−9 M (e.g., −8)=+; <1×10^−9 M (e.g., −10)=++; conditions: 50 μM glutamate; for EC50: read-out: NMDAR2B B: log EC50 (converted); for Emax: 0.25 h, read-out: NMDAR2B A: % maximal [3H]MK-801 binding relative to 1 mM glycine
T4 construct: expressed in transfected cells; host or cells: HEK cells (membrane extract)
Method: as §1, §2, §3, §4

Row | Structure (SMILES) | EC50 [1] [nM] | Emax [1] [%] | NMDAR2B A: % maximal [3H]MK-801 binding relative to 1 mM glycine [2] | NMDAR2B B: log EC50 [2] | NMDAR2A B: log EC50 [3] | EC50 [4] [nM] | Emax [4] [%] | NMDAR2A A: % maximal [3H]MK-801 binding relative to 1 mM glycine [3] | EC50 [3] [nM] | EC50 [2] [nM]
1 | CN1CC2(CCNC(=O)C2)C1=O (single isomer, unassigned) [DG, 2-methyl-2,7-diazaspiro[3.5]nonane-1,6-dione] | < 1 | < 100 | − (−=0) | − |  |  |  |  |  | 
2 | CC1CC(=O)N(c2ccc(F)cc2)C12CN(Cc1ccccc1)C2=O (single isomer, unassigned) [BX, 2-benzyl-5-(4-fluorophenyl)-8-methyl-2,5-diazaspiro[3.4]octane-1,6-dione] |  | 0 |  |  | − | < 1 | < 100 |  |  | 
3 | CC1CC(=O)N(c2ccc(F)cc2)C12CN(CC(N)=O)C2=O (single isomer, unassigned) [CF, 2-(5-(4-fluorophenyl)-8-methyl-1,6-dioxo-2,5-diazaspiro[3.4]octan-2-yl)acetamide] |  | 0 |  |  | − | < 1 | < 100 |  |  | 
4 | CN1CCC2(CC1=O)CN(Cc1ccccc1)C2=O (single isomer, unassigned) [CW, 2-benzyl-7-methyl-2,7-diazaspiro[3.5]nonane-1,6-dione] | < 1 | < 100 |  |  |  | < 1 | > 100 |  |  | 
5 | COc1ccc(CN2CC3(CCNC(=S)C3)C2=O)cc1 (single isomer, unassigned) [CN, 2-(4-methoxybenzyl)-6-thioxo-2,7-diazaspiro[3.5]nonan-1-one] | < 1 | < 100 |  |  |  | < 1 | < 100 |  |  | 
6 | CNC(=O)[C@H]([C@@H](C)O)N1CC2(CCNC(=O)C2)C1=O (single isomer, unassigned) [DB] |  | 0 |  |  | − | < 1 | > 100 |  |  | 
7 | COc1ccc(CN2CC3(CCN(CC(C)C)C(=O)C3)C2=O)cc1 (single isomer, unassigned) [CT, 7-isobutyl-2-(4-methoxybenzyl)-2,7-diazaspiro[3.5]nonane-1,6-dione] |  |  | − (−=0) | − |  |  |  | + (<100%=+) | < 1 | 
8 | COc1ccc(CN2CC3(CCNC(=S)C3)C2=S)cc1 (single isomer, unassigned) [CO, 2-(4-methoxybenzyl)-2,7-diazaspiro[3.5]nonane-1,6-dithione] | < 1 | < 100 | − (−=0) | − |  |  |  |  |  | 
9 | CC(C)CN1CC2(CCNC(=O)C2)C1=O (single isomer, unassigned) [DF, 2-isobutyl-2,7-diazaspiro[3.5]nonane-1,6-dione] |  |  |  |  |  |  |  |  | < 1 | < 1
10 | CC(C)CN1CC2(CCNC(=O)C2)C1=O (single isomer, unassigned) [DE, 2-isobutyl-2,7-diazaspiro[3.5]nonane-1,6-dione] | < 1 | < 100 |  |  |  | < 1 | < 100 |  |  | 
11 | CCN1CCC2(CC1=O)CN(Cc1ccccc1)C2=O (single isomer, unassigned) [CY, 2-benzyl-7-ethyl-2,7-diazaspiro[3.5]nonane-1,6-dione] | < 1 | < 100 |  | − |  |  | 0 |  |  | 
12 | CC1C(O)C(=O)N(C)C12CN(Cc1ccccc1)C2=O (single isomer, unassigned) [DN, 2-benzyl-7-hydroxy-5,8-dimethyl-2,5-diazaspiro[3.4]octane-1,6-dione] | < 1 |  |  | − |  |  |  |  |  | 
13 | CC1C(O)C(=O)N(C)C12CN(Cc1ccccc1)C2=O (single isomer, unassigned) [DM, 2-benzyl-7-hydroxy-5,8-dimethyl-2,5-diazaspiro[3.4]octane-1,6-dione] | ≥ 1 | < 100 |  | − |  |  | 0 |  |  | 
14 | O=C1CC2(CCN1)CN(Cc1ccccc1)C2=O (single isomer, unassigned) [CU, 2-benzyl-2,7-diazaspiro[3.5]nonane-1,6-dione] |  |  |  |  | − | < 1 | < 100 | − (−=0) |  | 
15 | CC1C(N)C(=O)N(C)C12CN(Cc1ccccc1)C2=O (single isomer, unassigned) [CG, 7-amino-2-benzyl-5,8-dimethyl-2,5-diazaspiro[3.4]octane-1,6-dione] |  | 0 |  |  | − | < 1 | < 100 |  |  | 
16 | CN1CCC2(CC1=O)CN(Cc1ccccc1)C2=O (single isomer, unassigned) [CX, 2-benzyl-7-methyl-2,7-diazaspiro[3.5]nonane-1,6-dione] |  |  | + (<100%=+) |  |  |  |  | + (<100%=+) | < 1 | < 1
17 | CC1CC(=O)N(C)C12CN(CC(N)=O)C2=O (single isomer, unassigned) [DJ, 2-(5,8-dimethyl-1,6-dioxo-2,5-diazaspiro[3.4]octan-2-yl)acetamide] |  |  | + (<100%=+) |  | − |  |  | − (−=0) |  | < 1
18 | NC(=O)CN1CC2(CCNC(=O)C2)C1=O (single isomer, unassigned) [DD, 2-(1,6-dioxo-2,7-diazaspiro[3.5]nonan-2-yl)acetamide] |  |  | + (<100%=+) |  | − |  |  | − (−=0) |  | < 1
19 | COc1ccc(CN2CC3(CCN(C)C(=O)C3)C2=O)cc1 (single isomer, unassigned) [CJ, 2-(4-methoxybenzyl)-7-methyl-2,7-diazaspiro[3.5]nonane-1,6-dione] |  |  | ++ (>100%=++) |  |  |  |  | + (<100%=+) | < 1 | < 1
20 | CC1CC(=O)N(c2ccc(F)cc2)C12CN([C@H](C(N)=O)[C@@H](C)O)C2=O (single isomer, unassigned) [DK] | ≥ 1 | > 100 |  | − |  |  | 0 |  |  | 
21 | CC1CC(=O)N(C)C12CN(CC(N)=O)C2=O (single isomer, unassigned) [DI, 2-(5,8-dimethyl-1,6-dioxo-2,5-diazaspiro[3.4]octan-2-yl)acetamide] | < 1 |  |  |  |  | < 1 | < 100 | + (<100%=+) |  | 
22 | COc1ccc(CN2CC3(CCN(CC(C)C)C(=O)C3)C2=O)cc1 (single isomer, unassigned) [CS, 7-isobutyl-2-(4-methoxybenzyl)-2,7-diazaspiro[3.5]nonane-1,6-dione] | < 1 | < 100 | ++ (>100%=++) |  |  | < 1 |  |  |  | 
23 | CCN1CCC2(CC1=O)CN(Cc1ccccc1)C2=O (single isomer, unassigned) [CZ, 2-benzyl-7-ethyl-2,7-diazaspiro[3.5]nonane-1,6-dione] | ≥ 1 |  |  | − |  |  |  |  |  | 
24 | NC(=O)CN1CC2(CCNC(=O)C2)C1=O (single isomer, unassigned) [DC, 2-(1,6-dioxo-2,7-diazaspiro[3.5]nonan-2-yl)acetamide] | < 1 |  |  |  |  | < 1 | < 100 | + (<100%=+) |  | 
